Results as given in BindingDB's records for doi:10.1021/jm011128+ (2002).

Key:
[1] = target: Thymidine kinase 2, mitochondrial (Homo sapiens) (UniProt O00142); experiment: Inhibitory effect against phosphorylation of [methyl-3H]dThd by Thymidine Kinase 2 (TK-2)
[2] = target: Thymidine kinase (Human herpesvirus 1); experiment: Compound was evaluated for inhibitory effect against phosphorylation of [methyl-3H]dThd by HSV-1 Thymidine kinase
[3] = target: Thymidine kinase (Human herpesvirus 1); experiment: Inhibitory activity against HSV-1 Thymidine kinase in OST-TK-/HSV-1 TK+ cell line in combination with BVAraU
[4] = target: Thymidine kinase (Human herpesvirus 1); experiment: Inhibitory activity against HSV-1 Thymidine kinase in OST-TK-/HSV-1 TK+ cell line in combination with gancicclovir

Thymidine kinase 2, mitochondrial (Homo sapiens), sequence (O00142 whole entry, looked up): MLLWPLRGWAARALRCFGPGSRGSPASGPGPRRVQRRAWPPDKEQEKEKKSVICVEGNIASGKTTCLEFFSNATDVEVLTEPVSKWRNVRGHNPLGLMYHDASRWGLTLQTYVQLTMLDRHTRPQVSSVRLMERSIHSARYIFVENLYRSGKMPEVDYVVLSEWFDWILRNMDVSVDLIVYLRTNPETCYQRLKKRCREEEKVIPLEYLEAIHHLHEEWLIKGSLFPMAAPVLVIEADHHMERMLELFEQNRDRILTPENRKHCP

IC50 [1] [µM] | Compound | further results
22 | Cc1cn(C/C=C\COCc2ccccc2)c(=O)[nH]c1=O [1-(4-Benzyloxy-but-2-enyl)-5-methyl-1H-pyrimidine-2,4-dione] | 
 | COc1ccc(C(OCC2OC(n3cc(C)c(=O)[nH]c3=O)CC2O)(c2ccccc2)c2ccc(OC)cc2)cc1 (stereo not drawn) [1-{5-[Bis-(4-methoxy-phenyl)-phenyl-methoxymethyl]-4-hydroxy-tetrahydro-furan-2-yl}-5-methyl-1H-pyrimidine-2,4-dione] | IC50 [2]: 14 µM
40 | Cc1cn(C/C=C\COC(=O)C(C)(C)C)c(=O)[nH]c1=O [2,2-Dimethyl-propionic acid 4-(5-methyl-2,4-dioxo-3,4-dihydro-2H-pyrimidin-1-yl)-but-2-enyl ester] | 
 | Cc1cn(Cc2ccccc2COC(c2ccccc2)(c2ccccc2)c2ccccc2)c(=O)[nH]c1=O [5-Methyl-1-(2-trityloxymethyl-benzyl)-1H-pyrimidine-2,4-dione] | IC50 [3]: 0.008 µM; IC50 [4]: 0.002 µM
 | Cc1cn(CC#CCOC(c2ccccc2)(c2ccccc2)c2ccccc2)c(=O)[nH]c1=O [5-Methyl-1-(4-trityloxy-but-2-ynyl)-1H-pyrimidine-2,4-dione] | IC50 [2]: 3.1 µM
30 | Cc1cn(C/C=C\COC(=O)c2ccccc2)c(=O)[nH]c1=O [Benzoic acid 4-(5-methyl-2,4-dioxo-3,4-dihydro-2H-pyrimidin-1-yl)-but-2-enyl ester] | 
4.6 | Cc1cn(C/C=C\COC(=O)C(c2ccccc2)c2ccccc2)c(=O)[nH]c1=O [Diphenyl-acetic acid 4-(5-methyl-2,4-dioxo-3,4-dihydro-2H-pyrimidin-1-yl)-but-2-enyl ester] | 
